Experimental findings from patent US20050107376A1, “Fungicidal mixtures based on prothioconazole” (priority 2002, published 2005) are described below.

In experiment [1] the test system is Erysiphe [syn. Blumeria] graminis forma specialis. tritici. Description: Activity against mildew of wheat (protective spray, wheat seedlings cultivar Kanzler). Type of experiment: in vivo. Conditions: 7 days, control 77% infestation. How it is done: (§1) The active compounds, separately or together, were formulated as a 10% emulsion in a mixture of 63% by weight of cyclohexanone and 27% by weight of emulsifier, and diluted with water to the desired concentration.
(§2) Evaluation was carried out by determining the infected leaf areas in percent. These percentages were converted into efficacies. The efficacy (W) was calculated as follows using Abbot's formula: [formula] • α corresponds to the fungal infection of the treated plants in % and • β corresponds to the fungal infection of the untreated (control) plants in %
(§3) An efficacy of 0 means that the infection level of the treated plants corresponds to that of the untreated control plants; an efficacy of 100 means that the treated plants were not infected.
(§4) The expected efficacies of the mixtures of the active compounds were determined using Colby's formula [R. S. Colby, Weeds 15, 20-22 (1967)] and compared with the observed efficacies. Colby's formula: E x+y−x•y/100 • E expected efficacy, expressed in % of the untreated control, when using the mixture of the active compounds A and B at the concentrations a and b • x efficacy, expressed in % of the untreated control, when using active compound A at a concentration of a • y efficacy, expressed in % of the untreated control, when using active compound B at a concentration of b.
Leaves of wheat seedlings of the cultivar “Kanzler”, which had been grown in pots, were sprayed to runoff point with an aqueous suspension having the concentration of active compound stated below. The suspension or emulsion was prepared from a stock solution with 10% of active compound in a mixture comprising 85% of cyclohexanone and 5% of emulsifier. 24 hours after the spraycoating had dried on, the plants were dusted with spores of mildew of wheat (Erysiphe [syn. Blumeria] graminis forma specialis. tritici). The test plants were then placed in a greenhouse at 20-24° C. and 60-90% relative atmospheric humidity. After 7 days, the extent of the mildew development was determined visually in % infection of the total leaf area.
The visually determined values for the percentage of diseased leaf areas were converted into efficacies in % of the untreated control. An efficacy of 0 means the same disease level as in the untreated control, an efficacy of 100 means 0% disease. The expected efficacies for combinations of active compounds were determined using the abovementioned Colby formula and compared with the observed efficacies.

The next experiment concerns Puccinia recondita. Description: Curative activity against brown rust of wheat (wheat seedlings cultivar Kanzler). It counts as in vivo. Conditions: 7 days, control 90% infestation. How it is done:
as §1, §2, §3, §4
Leaves of wheat seedlings of the cultivar “Kanzler”, which had been grown in pots, were dusted with spores of brown rust (Puccinia recondita). The pots were then placed in a chamber with high atmospheric humidity (90-95%), at 20-22° C. During this time, the spores germinated and the germinal tubes penetrated into the leaf tissue. The next day, the infected plants were sprayed to runoff point with an aqueous suspension having the concentration of active compound stated below. The suspension or emulsion was prepared from a stock solution with 10% of active compound in a mixture comprising 85% of cyclohexanone and 5% of emulsifier. After the spray coating had dried on, the test plants were cultivated in a greenhouse at 20-22° C. in 65-70% relative atmospheric humidity for 7 days. The extent of the rust fungus development on the leaves was then determined.
The visually determined values for the percentage of diseased leaf areas were converted into efficacies in % of the untreated control. An efficacy of 0 means the same disease level as in the untreated control, an efficacy of 100 means 0% disease. The expected efficacies for active compound combinations were determined using the abovementioned Colby formula and compared with the observed efficacies.

On to `CC(Cc1ccc(C(C)(C)C)cc1)CN1C[C@@H](C)O[C@@H](C)C1` (stereo partly drawn) [Compound II, fenpropimorph], for which the “Efficacy in % of the untreated control” value was determined as 0% in experiment [1] (0.15 ppm in the spray liquor); 0% in experiment [1] (0.6 ppm in the spray liquor); 74% in experiment [1] (2.5 ppm in the spray liquor); 0% with Puccinia recondita (0.15 ppm in the spray liquor); 0% with Puccinia recondita (0.6 ppm in the spray liquor); 22% in the experiment with Puccinia recondita (2.5 ppm in the spray liquor).
On to `OC(Cc1ccccc1Cl)(Cn1nc[nH]c1=S)C1(Cl)CC1` (stereo not drawn) [Compound I, 2-[2-(1-chlorocyclopropyl)-3-(2-chlorophenyl)-2-hydroxy-propyl]-2,4-dihydro-[1,2,4]-triazole-3-thione], for which the “Efficacy in % of the untreated control” value came out at 0% in experiment [1] (0.25 ppm in the spray liquor), 0% in experiment [1] (1 ppm in the spray liquor), 22% in the experiment on Puccinia recondita (0.25 ppm in the spray liquor) and 78% in the experiment on Puccinia recondita (1 ppm in the spray liquor).
Take `CC(Cc1ccc(C(C)(C)C)cc1)CN1CCCCC1` (stereo not drawn) [Compound IV, fenpropidin]: the “Efficacy in % of the untreated control” value in experiment [1] (0.15 ppm in the spray liquor) is 0%; in experiment [1] (0.6 ppm in the spray liquor), 61%; in the experiment with Puccinia recondita (0.15 ppm in the spray liquor), 0%; in the experiment on Puccinia recondita (0.6 ppm in the spray liquor), 0%; in the experiment with Puccinia recondita (2.5 ppm in the spray liquor), 44%.
Turning to `CCCCCCCCCCCCCN1CC(C)OC(C)C1` (stereo not drawn) [Compound III, tridemorph], the “Efficacy in % of the untreated control” value in experiment [1] (0.15 ppm in the spray liquor) was found to be 0%; in experiment [1] (0.6 ppm in the spray liquor) it was 0%; in experiment [1] (2.5 ppm in the spray liquor), 48%; in the experiment with Puccinia recondita (0.15 ppm in the spray liquor), 0%; in the experiment on Puccinia recondita (0.6 ppm in the spray liquor), 0%; in the experiment on Puccinia recondita (2.5 ppm in the spray liquor) it was 0%.
